Test results: the supplement of paper PMC11451515

System: NOMO1
Assay: cell viability relative to DMSO control; higher = less cytotoxic
Settings: 48 h
Summary of the method: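 NOMO1 or SEM cells were plated at 500 cells/well and P12-Ichikawa cells at 1000 cells/well in 1536-well plates (5 μl), after each leukemia line had been adapted for at least four passages in each medium. Pin dosing delivered library compounds in DMSO at 11 threefold concentrations, 47 μM to 0.79 nM. CellTiter-Glo One luminescence was read after 48 h at 37°C. Viability is reported as a per-plate percentage of DMSO wells, with cell-free wells as background.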

[1] = HPLM + 10% dialyzed FBS, 0.000781 µM
[2] = HPLM + 10% dialyzed FBS, 0.00234 µM
[3] = HPLM + 10% dialyzed FBS, 0.00702 µM
[4] = HPLM + 10% dialyzed FBS, 0.0211 µM
[5] = HPLM + 10% dialyzed FBS, 0.0632 µM
[6] = HPLM + 10% dialyzed FBS, 0.19 µM
[7] = HPLM + 10% dialyzed FBS, 0.569 µM
[8] = HPLM + 10% dialyzed FBS, 1.71 µM
[9] = HPLM + 10% dialyzed FBS, 5.12 µM
[10] = HPLM + 10% dialyzed FBS, 15.4 µM
[11] = HPLM + 10% dialyzed FBS, 46.1 µM
[12] = RPMI 5 mM glucose + 10% FBS, 0.000781 µM
[13] = RPMI 5 mM glucose + 10% FBS, 0.00234 µM
[14] = RPMI 5 mM glucose + 10% FBS, 0.00702 µM
[15] = RPMI 5 mM glucose + 10% FBS, 0.0211 µM
[16] = RPMI 5 mM glucose + 10% FBS, 0.0632 µM
[17] = RPMI 5 mM glucose + 10% FBS, 0.19 µM
[18] = RPMI 5 mM glucose + 10% FBS, 0.569 µM
[19] = RPMI 5 mM glucose + 10% FBS, 1.71 µM
[20] = RPMI 5 mM glucose + 10% FBS, 5.12 µM
[21] = RPMI 5 mM glucose + 10% FBS, 15.4 µM
[22] = RPMI 5 mM glucose + 10% FBS, 46.1 µM
[23] = RPMI 5 mM glucose + 10% dialyzed FBS, 0.000781 µM
[24] = RPMI 5 mM glucose + 10% dialyzed FBS, 0.00234 µM
[25] = RPMI 5 mM glucose + 10% dialyzed FBS, 0.00702 µM
[26] = RPMI 5 mM glucose + 10% dialyzed FBS, 0.0211 µM
[27] = RPMI 5 mM glucose + 10% dialyzed FBS, 0.0632 µM
[28] = RPMI 5 mM glucose + 10% dialyzed FBS, 0.19 µM
[29] = RPMI 5 mM glucose + 10% dialyzed FBS, 0.569 µM
[30] = RPMI 5 mM glucose + 10% dialyzed FBS, 1.71 µM
[31] = RPMI 5 mM glucose + 10% dialyzed FBS, 5.12 µM
[32] = RPMI 5 mM glucose + 10% dialyzed FBS, 15.4 µM
[33] = RPMI 5 mM glucose + 10% dialyzed FBS, 46.1 µM

| SMILES | cell viability [1] [%] | cell viability [2] [%] | cell viability [3] [%] | cell viability [4] [%] | cell viability [5] [%] | cell viability [6] [%] | cell viability [7] [%] | cell viability [8] [%] | cell viability [9] [%] | cell viability [10] [%] | cell viability [11] [%] | cell viability [12] [%] | cell viability [13] [%] | cell viability [14] [%] | cell viability [15] [%] | cell viability [16] [%] | cell viability [17] [%] | cell viability [18] [%] | cell viability [19] [%] | cell viability [20] [%] | cell viability [21] [%] | cell viability [22] [%] | cell viability [23] [%] | cell viability [24] [%] | cell viability [25] [%] | cell viability [26] [%] | cell viability [27] [%] | cell viability [28] [%] | cell viability [29] [%] | cell viability [30] [%] | cell viability [31] [%] | cell viability [32] [%] | cell viability [33] [%] |
| --- | --- | --- | --- | --- | --- | --- | --- | --- | --- | --- | --- | --- | --- | --- | --- | --- | --- | --- | --- | --- | --- | --- | --- | --- | --- | --- | --- | --- | --- | --- | --- | --- | --- |
| CC\12CCC(=O)\C=C1CCC3C2CCC4(C)C3CCC4(O)C#C (stereo not given) | 98.9 | 101 | 106 | 91.1 | 112 | 100 | 98.3 | 98.8 | 77.5 | 86.4 | 88 | 89.9 | 93.2 | 97.4 | 103 | 86.6 | 94.9 | 88.8 | 84 | 87.2 | 88.1 | 74.7 | 99.8 | 101 | 95.8 | 95.5 | 99.6 | 96.1 | 74.9 | 79.2 | 73.9 | 83.5 | 85.7 |
| O=C(CCc1ccc(O)cc1)c1c(O)cc(O)cc1O | 84.2 | 95.5 | 108 | 112 | 93.8 | 104 | 100 | 125 | 116 | 93 | 36.8 | 91.5 | 98.6 | 105 | 102 | 98 | 99.5 | 96.1 | 106 | 98.3 | 101 | 38.3 | 82.4 | 101 | 94.5 | 103 | 98.1 | 87.1 | 98.9 | 103 | 101 | 106 | 74.7 |
| Cc1nc2cc(C(=O)N3CCC4(CC3)CC(=O)c3c(cnn3C(C)C)C4)ccc2[nH]1 | 96.7 | 159 | 125 | 124 | 116 | 135 | 134 | 119 | 112 | 135 | 60.9 | 118 | 133 | 116 | 130 | 129 | 124 | 123 | 128 | 135 | 132 | 94.2 |  |  |  |  |  |  |  |  |  |  |  |
| O=C(Nc1c[nH]nc1-c1nc2cc(CN3CCOCC3)ccc2[nH]1)NC1CC1 | 91.3 | 111 | 113 | 95.6 | 81.1 | 102 | 104 | 104 | 97.9 | 51 | 3.89 | 85.9 | 103 | 97.1 | 85.5 | 56.3 | 55.3 | 78.7 | 84.9 | 89.4 | 61.2 | 4.23 | 88.3 | 102 | 92.6 | 93.7 | 67.1 | 66.7 | 84 | 83 | 86.7 | 54.5 | 4.36 |
| CC[C@]12CC[C@H]3[C@@H](CCC/4=C/C(=O)CC[C@H]34)[C@@H]1CC[C@@]2(O)C#C | 100 | 92.6 | 101 | 85.8 | 97.1 | 94.4 | 86.6 | 72.4 | 89.2 | 80.4 | 69.8 | 92.7 | 78.8 | 95 | 88.5 | 81.8 | 75.1 | 72.2 | 76.3 | 82.5 | 73.5 | 70.8 | 82.1 | 77.5 | 77.7 | 86.6 | 75.4 | 77.6 | 79.7 | 78.5 | 74.1 | 74.9 | 84.5 |
| CCN(CC)CCOc1ccc(Cc2ccccc2)cc1 | 97.9 | 102 | 113 | 92.9 | 110 | 106 | 113 | 102 | 74.1 | 21.2 | 14.2 | 92.2 | 92.2 | 94.2 | 106 | 102 | 91.8 | 101 | 91.6 | 83.4 | 68.3 | 57 | 99.1 | 96 | 108 | 108 | 97.8 | 108 | 97.9 | 108 | 97.5 | 91.4 | 78.3 |
| COc1cc(Nc2c(C#N)cnc3cc(OCCCN4CCN(C)CC4)c(OC)cc23)c(Cl)cc1Cl | 123 | 121 | 118 | 111 | 116 | 105 | 121 | 83.6 | 52.1 | 9.63 | 7.18 | 109 | 115 | 126 | 119 | 126 | 118 | 112 | 106 | 82.4 | 13.7 | 7.22 | 103 | 105 | 112 | 113 | 116 | 114 | 112 | 120 | 85.8 | 26 | 10.6 |
| N#C/C(=C\c1ccc(O)c(O)c1)C(=O)NCc1ccccc1 | 103 | 111 | 124 | 110 | 98.6 | 118 | 122 | 98.5 | 91.7 | 92.8 | 64.7 | 100 | 93.2 | 84.5 | 93.3 | 106 | 92.1 | 86.7 | 91.3 | 96.5 | 97.6 | 89 | 98 | 103 | 110 | 105 | 102 | 110 | 99.3 | 108 | 89.7 | 95.4 | 83.8 |
| O=C([O-])C[C@H](O)C[C@H](O)/C=C/c1c(C2CC2)nc2ccccc2c1-c1ccc(F)cc1 | 101 | 104 | 130 | 120 | 125 | 116 | 112 | 132 | 109 | 87.7 | 12 | 108 | 116 | 122 | 114 | 111 | 112 | 116 | 134 | 109 | 97.8 | 23.7 | 114 | 109 | 110 | 122 | 116 | 119 | 129 | 115 | 101 | 86.4 | 22.9 |
| NC(=O)[C@H]1CCS[C@@H]2C[C@]3(CCCN3C(=O)Cc3ccc(NC(=O)COc4ccc(Cl)cc4Cl)cc3)C(=O)N12 | 111 | 138 | 123 | 134 | 139 | 123 | 102 | 36.8 | 39.9 | 42.3 | 52.3 | 107 | 129 | 121 | 131 | 138 | 131 | 119 | 103 | 26.1 | 26.6 | 38.9 |  |  |  |  |  |  |  |  |  |  |  |
| C[C@H]1C[C@H]2[C@@H]3CC[C@](O)(C(=O)CO)[C@@]3(C)C[C@H](O)[C@@H]2[C@@]\4(C)/C=C\C(=O)\C=C14 | 82.1 | 110 | 115 | 104 | 113 | 115 | 92.3 | 89.9 | 89.6 | 94.1 | 95.6 | 81.4 | 95.3 | 90.6 | 101 | 104 | 97.1 | 93.1 | 89.5 | 89.5 | 88.4 | 92.8 | 72.9 | 88.5 | 91.4 | 102 | 102 | 93.1 | 100 | 90.4 | 101 | 105 | 84.6 |
| CCOC(=O)N1c2ccc(C(F)(F)F)cc2[C@@H](N(Cc2cc(C(F)(F)F)cc(C(F)(F)F)c2)C(=O)OC)C[C@H]1CC | 124 | 149 | 123 | 118 | 124 | 139 | 110 | 109 | 120 | 105 | 110 | 121 | 117 | 105 | 118 | 129 | 113 | 115 | 111 | 114 | 112 | 107 | 110 | 117 | 121 | 115 | 121 | 110 | 103 | 112 | 119 | 109 | 93.7 |
| COc1cccc2c1C(=O)c1c(O)c3c(c(O)c1C2=O)C[C@@](O)(C(=O)CO)C[C@@H]3O[C@H]1C[C@H](N)[C@H](O[C@H]2CCCCO2)[C@H](C)O1 | 124 | 106 | 100 | 135 | 117 | 116 | 117 | 108 | 43 | 113 | 63 | 120 | 128 | 122 | 128 | 114 | 128 | 123 | 125 | 22.9 | 124 | 101 | 119 | 116 | 121 | 115 | 104 | 124 | 106 | 123 | 41.7 | 110 | 102 |
| CN(C)c1ccc2nc3ccc(N(C)C)cc3[s+]c2c1 | 115 | 94.5 | 122 | 97.9 | 106 | 90.7 | 102 | 91.1 | 73.2 | 25.9 | 12.1 | 96 | 91.9 | 89.2 | 92.1 | 93.4 | 93.6 | 100 | 86.4 | 78.1 | 7.62 | 3.06 | 102 | 99.7 | 99.6 | 87.4 | 94.2 | 86.7 | 102 | 86.5 | 65 | 10.1 | 3.9 |
| Cc1c(-c2cccc3c(CCCOc4cccc5ccccc45)c(C(=O)O)n(Cc4cccnc4)c23)c(COc2ccc(N3CCN([S+](=O)([O-])N(C)C)CC3)cc2)nn1C | 88.7 | 85.4 | 83.8 | 94.1 | 108 | 86.3 | 85.9 | 74.2 | 89.2 | 73.8 | 55.4 | 92.5 | 97.3 | 80.4 | 85.7 | 87.9 | 94.7 | 90.5 | 87.8 | 74.9 | 79.3 | 85.2 | 97 | 97.1 | 92.5 | 96.1 | 95.9 | 94.1 | 86 | 76.7 | 81.4 | 84.7 | 72.5 |
| Cc1ccccc1C(OCCN(C)C)c1ccccc1 (stereo not given) | 102 | 117 | 145 | 138 | 135 | 143 | 142 | 122 | 116 | 125 | 57.5 | 121 | 112 | 120 | 120 | 120 | 115 | 125 | 125 | 127 | 117 | 116 |  |  |  |  |  |  |  |  |  |  |  |
